# Assay results published in publication PMC12116161, “An Elastase Inhibitor ShSPI from Centipede Attenuates Bleomycin-Induced Pulmonary Fibrosis” (Toxins, 2025).
# Entries after “also recorded” stand apart in the source; their conditions may differ. Where a SMILES comes first, the peptide text is derived from it. Bridges are numbered along the chain shown (N, C = ends).
# Key:
# [1] = system: ICR healthy mice; experiment: Single administration toxicity study: overall toxicity and examination of major organs; assay type: in vivo; conditions: single airway spray
# Method: (§1) Specific pathogen-free (SIPF) grade ICR healthy mice (with an equal number of males and females, procured from Hunan Slaughter King Laboratory Animal Co., Changsha, China) were randomly divided into four experimental groups and received ShSPI via airway spray at doses of 0 mg/kg (control), 40 mg/kg, 80 mg/kg, or 160 mg/kg in a single administration. Following treatment, the mice were monitored for a 14-day observation period. On the fourteenth day, blood plasma samples were collected for precise measurement and analysis of hematological and biochemical parameters. The specific process is as follows.
# At the end of the 14-day observation period, all mice underwent a comprehensive gross anatomical examination. Key organs, including the heart, liver, spleen, lungs, kidneys, brain, and gastrointestinal tract, were evaluated for changes in surface color, morphological structure, size, and tissue texture.
# [2] = system: ICR healthy mice; experiment: Single administration toxicity study: hematological examination; assay type: in vivo; conditions: single airway spray, day 14 post-dose, EDTA whole blood, automated hematology analyzer, mean ± s
# Method: as §1
# On day 14 post-dose, approximately 1.7–2.0 mL of whole blood was collected for hematological and biochemical analyses. Hematological parameters were assessed using an automated hematology analyzer, while biochemical parameters were evaluated with an automated biochemistry analyzer. Prior to blood collection, all mice were fasted for at least 12 h. For hematological analysis, 200 μL of whole blood was immediately transferred into EDTA-containing tubes. For biochemical analysis, 1.5 mL of whole blood was placed into serum separator tubes without anticoagulant and centrifuged to isolate serum.
# [3] = system: BLM-induced idiopathic pulmonary fibrosis (IPF) mouse model; experiment: Body weight changes in BLM-induced IPF mouse model; assay type: in vivo, ICR mice; conditions: tracheal spray once daily for 7 days, BLM-induced IPF mice
# Method: (§2) Animal Model Preparation: The peptide powder was dissolved in pre-cooled saline and filtered to remove bacteria, then a spray needle was attached to a micro-syringe to aspirate the peptide solution. A total of 56 ICR mice were anesthetized by intramuscular injection of avertin. After anesthesia, the mice were fixed supine, the tongue was gently pulled, the vocal folds were exposed with a laryngoscope, the trachea was gently inserted, and the nebulized solution was rapidly pushed and injected. Each mouse was administered 100 μL of a 0.4 mg/mL bleomycin solution via tracheal spray, with the treatment performed once. Seven days after modeling, the mice were randomly grouped for ShSPI treatment based on weight loss scores. An additional 8 mice received the vehicle (normal saline) and were designated as the sham group.
# (§3) A total of 48 suitable mice were randomly divided into five groups: the model control group (MC), the positive control group (PC), and the ShSPI low-dose groups (1 mg/kg), medium-dose groups (2 mg/kg), and high-dose groups (4 mg/kg).
# Drug Administration: Starting on day 7 post-modeling, ShSPI peptide treatment groups were anesthetized with intramuscular avertin and received tracheal spray administration of the peptide. […]
# Body Weight Monitoring: The body weight of the mice was monitored and recorded from the modeling phase to the end of treatment (a total of two weeks).
# [4] = system: BLM-induced idiopathic pulmonary fibrosis (IPF) mouse model; experiment: Histopathologic analysis of the lungs (H&E and Masson staining) of IPF mice; assay type: in vivo, ICR mice
# Method: as §2, §3
# Drug Administration: Starting on day 7 post-modeling, ShSPI peptide treatment groups were anesthetized with intramuscular avertin and received tracheal spray administration of the peptide. The low-dose group was treated with 1 mg/kg ShSPI peptide, the medium-dose group with 2 mg/kg, and the high-dose group with 4 mg/kg. The positive control group, without anesthesia, received 200 mg/kg pirfenidone (IPFD) via oral gavage. All groups were treated once daily for seven consecutive days.
# Sample Collection: Twenty-four hours after the final treatment, all ICR mice were euthanized via intramuscular injection of suforane. […]
# The samples from experiment 4.1 were then processed using standard protocols for paraffin embedding, and 5 μm thick paraffin sections were prepared. […] Multiple fields were randomly selected, and the severity of alveolar inflammation in each group was quantified according to criteria such as the area of tissue affected by inflammation. […]
# [5] = ShSPI tracheal spray once daily for 7 days
compound,measurement,setting,value
"CC[C@H](C)[C@@H]1NC(=O)[C@H](C)NC(=O)[C@@H]2CCCN2C(=O)[C@@H]2CSSC[C@H](NC(=O)[C@H](CO)NC(=O)[C@H](CC(N)=O)NC(=O)[C@H](CO)NC(=O)[C@H](Cc3ccc(O)cc3)NC(=O)[C@H](CCSC)NC(=O)[C@H](CCCNC(=N)N)NC(=O)CNC(=O)[C@H](Cc3ccccc3)NC(=O)[C@H](CCC(=O)O)NC(=O)[C@H](CC(=O)O)NC(=O)[C@H](Cc3ccccc3)NC(=O)[C@H](C(C)C)NC(=O)[C@@H]3CCCN3C(=O)[C@H](CCC(N)=O)NC(=O)[C@H](Cc3ccc(O)cc3)NC1=O)C(=O)N[C@@H](CCC(=O)O)C(=O)N[C@@H](CCSC)C(=O)N[C@@H](CCC(N)=O)C(=O)N[C@@H](CCCNC(=N)N)C(=O)N[C@@H](C)C(=O)N[C@@H](CCCNC(=N)N)C(=O)N[C@H](C(=O)N[C@@H](CC(C)C)C(=O)N[C@@H](CCCNC(=N)N)C(=O)NCC(=O)O)CSSC[C@H](N)C(=O)N1CCC[C@H]1C(=O)N[C@@H](CCC(N)=O)C(=O)N[C@@H](C(C)C)C(=O)N2 [ShSPI] (H-CPQVCPAIYQPVFDEFGRMYSNSCEMQRARCLRG-OH; disulfide 1-31, 5-24; N-terminus and C-terminus assumed)",histopathological examination of major organs,"[1]; doses up to 160 mg/kg, end of 14-day observation",no pathological changes
same,toxicity after single administration,"[1]; escalating doses up to 160 mg/kg, 14-day observation",no detectable toxicity observed; also recorded: did not show significant toxic effects
same,Bas,"[2]; 40 mg/kg ShSPI, n = 6",0.02 ± 0.01 10^9/L
same,Bas%,"[2]; 40 mg/kg ShSPI, n = 6",0.35 ± 0.28%
same,Eos,"[2]; 40 mg/kg ShSPI, n = 6",0.09 ± 0.05 10^9/L
same,HCT,"[2]; 40 mg/kg ShSPI, n = 6",36.98 ± 1.32%
same,HGB,"[2]; 40 mg/kg ShSPI, n = 6",123.50 ± 5.64 g/L
same,Lym,"[2]; 40 mg/kg ShSPI, n = 6",6.40 ± 2.49 10^9/L
same,Lym%,"[2]; 40 mg/kg ShSPI, n = 6",78.20 ± 2.18%
same,MCH,"[2]; 40 mg/kg ShSPI, n = 6",15.86 ± 0.43 pg
same,MCHC,"[2]; 40 mg/kg ShSPI, n = 6",333.50 ± 3.98 g/L
same,MCV,"[2]; 40 mg/kg ShSPI, n = 6",47.56 ± 0.95 fL
same,MPV,"[2]; 40 mg/kg ShSPI, n = 6",5.35 ± 0.18 fL
same,Mon,"[2]; 40 mg/kg ShSPI, n = 6",0.28 ± 0.13 10^9/L
same,Mon%,"[2]; 40 mg/kg ShSPI, n = 6",3.35 ± 0.74%
same,Neu,"[2]; 40 mg/kg ShSPI, n = 6",1.41 ± 0.69 10^9/L
same,Neu%,"[2]; 40 mg/kg ShSPI, n = 6",16.78 ± 1.90%
same,PCT,"[2]; 40 mg/kg ShSPI, n = 6",0.71 ± 0.04%
same,PDW,"[2]; 40 mg/kg ShSPI, n = 6",15.21 ± 0.17
same,PLT,"[2]; 40 mg/kg ShSPI, n = 6",1326.50 ± 494.34 10^9/L
same,RBC,"[2]; 40 mg/kg ShSPI, n = 6",7.78 ± 0.23 10^12/L
same,RDW-CV,"[2]; 40 mg/kg ShSPI, n = 6",12.70 ± 0.76%
same,RDW-SD,"[2]; 40 mg/kg ShSPI, n = 6",26.68 ± 1.26 fL
same,WBC,"[2]; 40 mg/kg ShSPI, n = 6",8.22 ± 3.30 10^9/L
same,Bas,"[2]; 80 mg/kg ShSPI, n = 6",0.03 ± 0.04 10^9/L
same,Bas%,"[2]; 80 mg/kg ShSPI, n = 6",0.56 ± 0.60%
same,Eos,"[2]; 80 mg/kg ShSPI, n = 6",0.22 ± 0.20 10^9/L
same,Eos%,"[2]; 80 mg/kg ShSPI, n = 6",3.10 ± 2.15%
same,HCT,"[2]; 80 mg/kg ShSPI, n = 6",35.93 ± 2.11%
same,HGB,"[2]; 80 mg/kg ShSPI, n = 6",120.33 ± 6.83 g/L
same,Lym,"[2]; 80 mg/kg ShSPI, n = 6",4.66 ± 1.68 10^9/L
same,Lym%,"[2]; 80 mg/kg ShSPI, n = 6",68.93 ± 6.78%
same,MCH,"[2]; 80 mg/kg ShSPI, n = 6",16.08 ± 0.40 pg
same,MCHC,"[2]; 80 mg/kg ShSPI, n = 6",335.33 ± 6.28 g/L
same,MCV,"[2]; 80 mg/kg ShSPI, n = 6",47.95 ± 0.38 fL
same,MPV,"[2]; 80 mg/kg ShSPI, n = 6",5.48 ± 0.48 fL
same,Mon,"[2]; 80 mg/kg ShSPI, n = 6",0.38 ± 0.05 10^9/L
same,Neu,"[2]; 80 mg/kg ShSPI, n = 6",1.35 ± 0.40 10^9/L
same,Neu%,"[2]; 80 mg/kg ShSPI, n = 6",21.23 ± 5.92%
same,PCT,"[2]; 80 mg/kg ShSPI, n = 6",0.69 ± 0.09%
same,PDW,"[2]; 80 mg/kg ShSPI, n = 6",15.33 ± 0.10
same,PLT,"[2]; 80 mg/kg ShSPI, n = 6",1272 ± 206.81 10^9/L
same,RBC,"[2]; 80 mg/kg ShSPI, n = 6",7.49 ± 0.34 10^12/L
same,RDW-CV,"[2]; 80 mg/kg ShSPI, n = 6",12.18 ± 0.22%
same,RDW-SD,"[2]; 80 mg/kg ShSPI, n = 6",25.75 ± 1.03 fL
same,WBC,"[2]; 80 mg/kg ShSPI, n = 6",6.66 ± 2.04 10^9/L
same,Mon%,"[2]; 80 mg/kg ShSPI, n = 6, * p < 0.05 vs blank control",6.16 ± 1.76 * %
same,Bas,"[2]; 160 mg/kg ShSPI, n = 6",0.02 ± 0.01 10^9/L
same,Bas%,"[2]; 160 mg/kg ShSPI, n = 6",0.20 ± 0.12%
same,Eos,"[2]; 160 mg/kg ShSPI, n = 6",0.21 ± 0.19 10^9/L
same,Eos%,"[2]; 160 mg/kg ShSPI, n = 6",1.85 ± 1.23%
same,HCT,"[2]; 160 mg/kg ShSPI, n = 6",37.81 ± 1.30%
same,HGB,"[2]; 160 mg/kg ShSPI, n = 6",126.66 ± 4.36 g/L
same,Lym,"[2]; 160 mg/kg ShSPI, n = 6",8.63 ± 2.79 10^9/L
same,Lym%,"[2]; 160 mg/kg ShSPI, n = 6",75.90 ± 6.54%
same,MCH,"[2]; 160 mg/kg ShSPI, n = 6",16.05 ± 0.40 pg
same,MCHC,"[2]; 160 mg/kg ShSPI, n = 6",335.33 ± 4.13 g/L
same,MCV,"[2]; 160 mg/kg ShSPI, n = 6",47.86 ± 65 fL
same,MPV,"[2]; 160 mg/kg ShSPI, n = 6",5.21 ± 0.21 fL
same,Mon,"[2]; 160 mg/kg ShSPI, n = 6",0.42 ± 0.21 10^9/L
same,Mon%,"[2]; 160 mg/kg ShSPI, n = 6",3.58 ± 0.74%
same,Neu,"[2]; 160 mg/kg ShSPI, n = 6",2.23 ± 1.28 10^9/L
same,Neu%,"[2]; 160 mg/kg ShSPI, n = 6",18.46 ± 5.30%
same,PCT,"[2]; 160 mg/kg ShSPI, n = 6",0.78 ± 0.07%
same,PDW,"[2]; 160 mg/kg ShSPI, n = 6",15.21 ± 0.07
same,PLT,"[2]; 160 mg/kg ShSPI, n = 6",1511.2 ± 178.44 10^9/L
same,RBC,"[2]; 160 mg/kg ShSPI, n = 6",7.90 ± 0.31 10^12/L
same,RDW-CV,"[2]; 160 mg/kg ShSPI, n = 6",12.83 ± 0.74%
same,RDW-SD,"[2]; 160 mg/kg ShSPI, n = 6",27.20 ± 1.81 fL
same,WBC,"[2]; 160 mg/kg ShSPI, n = 6",11.5 ± 4.13 10^9/L
same,body weight recovery,[3]; ShSPI low-dose group (1 mg/kg),"upward trend, albeit with a slower recovery rate"
same,body weight recovery,[3]; ShSPI medium- and high-dose groups (2 and 4 mg/kg),comparable to that of the positive control group
same,effect on the model's damage (fibrotic lesions),"[4]; ShSPI 1 mg/kg tracheal spray once daily for 7 days, compared with 2 and 4 mg/kg",less effective
same,collagen deposition in the lungs (Masson staining),[4]; [5],substantial inhibition
same,lung inflammation (H&E staining),[4]; [5],substantial reduction
